# Assay results as given in US4946828A, “Novel insulin peptides” (Novo Nordisk A/S, priority 1985, dated 1990).
# Legend:
# mouse = assay: Mouse blood sugar depletion test (British Pharmacopoeia 1980, A 141-A 142); format: in vivo; settings: solutions without additions of zinc (zinc content 8-10 μg/ml from crystals); estimated potencies
# Experimental: The potencies of insulin compounds were accessed in the mouse blood sugar depletion test (British Pharmacopoeia 1980, A 141-A 142). In order to minimize the problem of estimating potency of insulins having a timing different from the standard, insulin solutions for potency determinations were made up without additions of zinc. Solutions were made up to contain […] based on the absorbance at 276 nm. The zinc content of solutions were 8-10 μg/ml, arising from the crystalline derivatives.
# fasted rabbits = assay: Test for prolongation of insulin effect (hypoglycemic effect, British Pharmacopoeia 1980, A 142); format: in vivo, rabbit; settings: for Glucose in percent of initial, 1 h / Glucose in percent of initial, 2 h / Glucose in percent of initial, 4 h / Glucose in percent of initial, 6 h: pH 4.5, 14.3 nmole per rabbit s.c.; for Prolongation of action: about 240 nmole/ml
# Experimental: Sterile injectable solutions of the compounds of formula I for testing of the degree of prolonged action were made using 1.6% (w/v) glycerol as the isotonicum, using 0.3% (w/v) m-cresol as the preservative, […] The pH values of the solutions were adjusted sufficiently off the isoelectric point of the compounds of formula I to keep the solutions clear upon storage at 4° C. The solutions contained 240 nmole/ml of the compounds of formula I. The concentration of 240 nmole/ml was established by measurement of the absorbance at 276 nm of a more concentrated stock solution devoid of m-cresol, using the molar extinction coefficient for porcine insulin of 6100 for these derivatives (see Handbuch der Inneren Medizin, Vol. 7/Part 2A, Editor: Oberdisse, 1975, 113). […] 1 U corresponds to 5.95 nmole.
# Injectable solutions containing 240 nmole/ml of the compounds of formula I stated in Table II and having the pH values and content of zinc stated therein were made.
# The prolongation of the hypoglycemic effect produced by the injectable solutions of insulin was tested according to British Pharmacopoeia 1980, A 142, in fasted rabbits. Each test solution was administered subcutaneously in a dosis of 14.3 nmole per rabbit in 12 animals weighing 3-4 kg, and the course of the hypoglycemia was followed for 6 hours.
# [1] = after subcutaneous administration; cited from earlier work
substance,measurement,setting,value
"Gln^A17,Arg^B27,Thr^B30 --NH2 human insulin [Gln^A17,Arg^B27,Thr^B30 --NH2 insulin]","Potency relative to insulin, %",mouse,71%
"Gln^B13,Gln^A17 human insulin [Gln^A17,Gln^B13 insulin]","Potency relative to insulin, %",mouse,50%
same,"Glucose in percent of initial, 1 h",fasted rabbits; Zn++ 80 μg/ml,53% of initial
same,"Glucose in percent of initial, 2 h",fasted rabbits; Zn++ 80 μg/ml,47% of initial
same,"Glucose in percent of initial, 4 h",fasted rabbits; Zn++ 80 μg/ml,55% of initial
same,"Glucose in percent of initial, 6 h",fasted rabbits; Zn++ 80 μg/ml,82% of initial
Gln^A4 insulin,"Potency relative to insulin, %",mouse,79%
"Arg^B27,Thr^B30 --NH2 human insulin [Arg^B27,Thr^B30 --NH2 insulin]","Potency relative to insulin, %",mouse,92%
same,Prolongation of action,"fasted rabbits; 3 zinc atoms per hexamer, 8 μg zinc/ml",very prolonged action
same,"Glucose in percent of initial, 1 h",fasted rabbits; Zn++ 80 μg/ml,88% of initial
same,"Glucose in percent of initial, 2 h",fasted rabbits; Zn++ 80 μg/ml,86% of initial
same,"Glucose in percent of initial, 4 h",fasted rabbits; Zn++ 80 μg/ml,85% of initial
same,"Glucose in percent of initial, 6 h",fasted rabbits; Zn++ 80 μg/ml,81% of initial
same,"Glucose in percent of initial, 1 h",fasted rabbits; Zn++ […],62% of initial
same,"Glucose in percent of initial, 2 h",fasted rabbits; Zn++ […],64% of initial
same,"Glucose in percent of initial, 4 h",fasted rabbits; Zn++ […],66% of initial
same,"Glucose in percent of initial, 6 h",fasted rabbits; Zn++ […],67% of initial
"Gln^A17,Lys^B30 --NH2 human insulin [Gln^A17,Lys^B30 --NH2 insulin]","Potency relative to insulin, %",mouse,62%
same,"Glucose in percent of initial, 1 h",fasted rabbits; Zn++ 80 μg/ml,60% of initial
same,"Glucose in percent of initial, 2 h",fasted rabbits; Zn++ 80 μg/ml,56% of initial
same,"Glucose in percent of initial, 4 h",fasted rabbits; Zn++ 80 μg/ml,73% of initial
same,"Glucose in percent of initial, 6 h",fasted rabbits; Zn++ 80 μg/ml,86% of initial
Arg^B27 human insulin [Arg^B27 insulin],"Potency relative to insulin, %",mouse,87%
same,"Glucose in percent of initial, 1 h",fasted rabbits; Zn++ 80 μg/ml,45% of initial
same,"Glucose in percent of initial, 2 h",fasted rabbits; Zn++ 80 μg/ml,34% of initial
same,"Glucose in percent of initial, 4 h",fasted rabbits; Zn++ 80 μg/ml,51% of initial
same,"Glucose in percent of initial, 6 h",fasted rabbits; Zn++ 80 μg/ml,91% of initial
Lys^B30 --NH2 insulin,Prolongation of action,"fasted rabbits; 30 zinc per hexamer, 80 μg zinc/ml",moderate prolongation of action
same,"Glucose in percent of initial, 1 h",fasted rabbits; Zn++ 80 μg/ml,74% of initial
same,"Glucose in percent of initial, 2 h",fasted rabbits; Zn++ 80 μg/ml,83% of initial
same,"Glucose in percent of initial, 4 h",fasted rabbits; Zn++ 80 μg/ml,80% of initial
same,"Glucose in percent of initial, 6 h",fasted rabbits; Zn++ 80 μg/ml,82% of initial
"Gln^A17,Thr^B30 --NH2 human insulin [Gln^A17,Thr^B30 --NH2 insulin]","Potency relative to insulin, %",mouse,67%
same,"Glucose in percent of initial, 1 h",fasted rabbits; Zn++ 80 μg/ml,65% of initial
same,"Glucose in percent of initial, 2 h",fasted rabbits; Zn++ 80 μg/ml,63% of initial
same,"Glucose in percent of initial, 4 h",fasted rabbits; Zn++ 80 μg/ml,68% of initial
same,"Glucose in percent of initial, 6 h",fasted rabbits; Zn++ 80 μg/ml,83% of initial
Gln^B21 insulin,"Potency relative to insulin, %",mouse,96%
"Lys^B27,Lys^B30 --NH2 human insulin [Lys^B27,Lys^B30 --NH2 insulin]","Potency relative to insulin, %",mouse,56%
same,"Glucose in percent of initial, 1 h",fasted rabbits; Zn++ 9.5 μg/ml,72% of initial
same,"Glucose in percent of initial, 2 h",fasted rabbits; Zn++ 9.5 μg/ml,65% of initial
same,"Glucose in percent of initial, 4 h",fasted rabbits; Zn++ 9.5 μg/ml,65% of initial
same,"Glucose in percent of initial, 6 h",fasted rabbits; Zn++ 9.5 μg/ml,60% of initial
"Gln^B13,Arg^B27 human insulin [Gln^B13,Arg^B27 insulin]","Potency relative to insulin, %",mouse,78%
same,"Glucose in percent of initial, 1 h",fasted rabbits; Zn++ 80 μg/ml,55% of initial
same,"Glucose in percent of initial, 2 h",fasted rabbits; Zn++ 80 μg/ml,46% of initial
same,"Glucose in percent of initial, 4 h",fasted rabbits; Zn++ 80 μg/ml,61% of initial
same,"Glucose in percent of initial, 6 h",fasted rabbits; Zn++ 80 μg/ml,91% of initial
"Gln^B13,Thr^B30 --NH2 human insulin [Gln^B13,Thr^B30 --NH2 insulin]","Glucose in percent of initial, 1 h",fasted rabbits; Zn++ […],91% of initial
same,"Glucose in percent of initial, 2 h",fasted rabbits; Zn++ […],92% of initial
same,"Glucose in percent of initial, 4 h",fasted rabbits; Zn++ […],92% of initial
same,"Glucose in percent of initial, 6 h",fasted rabbits; Zn++ […],90% of initial
"Arg^B27,Lys^B30 --NH2 human insulin [Arg^B27,Lys^B30 --NH2 insulin]","Potency relative to insulin, %",mouse,84%
same,"Glucose in percent of initial, 1 h",fasted rabbits; Zn++ 10.9 μg/ml,78% of initial
same,"Glucose in percent of initial, 2 h",fasted rabbits; Zn++ 10.9 μg/ml,73% of initial
same,"Glucose in percent of initial, 4 h",fasted rabbits; Zn++ 10.9 μg/ml,69% of initial
same,"Glucose in percent of initial, 6 h",fasted rabbits; Zn++ 10.9 μg/ml,67% of initial
same,"Glucose in percent of initial, 1 h",fasted rabbits; Zn++ 80 μg/ml,85% of initial
same,"Glucose in percent of initial, 2 h",fasted rabbits; Zn++ 80 μg/ml,83% of initial
same,"Glucose in percent of initial, 4 h",fasted rabbits; Zn++ 80 μg/ml,81% of initial
same,"Glucose in percent of initial, 6 h",fasted rabbits; Zn++ 80 μg/ml,79% of initial
Lys^B27 human insulin [Lys^B27 insulin],"Potency relative to insulin, %",mouse,88%
same,"Glucose in percent of initial, 1 h",fasted rabbits; Zn++ 80 μg/ml,47% of initial
same,"Glucose in percent of initial, 2 h",fasted rabbits; Zn++ 80 μg/ml,40% of initial
same,"Glucose in percent of initial, 4 h",fasted rabbits; Zn++ 80 μg/ml,55% of initial
same,"Glucose in percent of initial, 6 h",fasted rabbits; Zn++ 80 μg/ml,93% of initial
"Gln^A17,Arg^B27human insulin [Gln^A17,Arg^B27 insulin]","Potency relative to insulin, %",mouse,69%
same,"Glucose in percent of initial, 1 h",fasted rabbits; Zn++ 80 μg/ml,53% of initial
same,"Glucose in percent of initial, 2 h",fasted rabbits; Zn++ 80 μg/ml,47% of initial
same,"Glucose in percent of initial, 4 h",fasted rabbits; Zn++ 80 μg/ml,50% of initial
same,"Glucose in percent of initial, 6 h",fasted rabbits; Zn++ 80 μg/ml,66% of initial
"A1,B29-di-Boc substituted insulin",Prolonged insulin action,[1],too slightly prolonged action to be clinically useful
"Gln^B13,Arg^B27,Thr^B30 --NH2 human insulin [Gln^B13,Arg^B27,Thr^B30 --NH2 insulin]","Potency relative to insulin, %",mouse,62%
"Lys^B27,Thr^B30 --NH2 human insulin [Lys^B27,Thr^B30 --NH2 insulin]","Potency relative to insulin, %",mouse,82%
same,"Glucose in percent of initial, 1 h",fasted rabbits; Zn++ […],56% of initial
same,"Glucose in percent of initial, 2 h",fasted rabbits; Zn++ […],55% of initial
same,"Glucose in percent of initial, 4 h",fasted rabbits; Zn++ […],62% of initial
same,"Glucose in percent of initial, 6 h",fasted rabbits; Zn++ […],61% of initial
"Gln^A17,Gln^B13,Thr^B30 --NH2 human insulin [Gln^A17,Gln^B13,Thr^B30 --NH2 insulin]","Potency relative to insulin, %",mouse,49%
